Holding throughout (format): in vivo
Assay [1] deals with pMCAO mice (permanent middle cerebral artery occlusion, focal cerebral ischemia). Put plainly: TTC staining to determine infarct volume after pMCAO. Conditions: 30 mg/kg intraperitoneally 2 hr before and 6 hr after pMCAO, measured 24 hr post-pMCAO by TTC staining. How it is done: Human stroke typically involves disruption of blood flow to a specific region supplied often by the middle cerebral artery (MCA). The classical animal model of focal ischemia, MCA occlusion (MCAO), produces the problem of long-term vessel blockade, simulating what often occurs in human stroke. We have induced focal cerebral ischemia in mice by cauterizing the MCA. To evaluate the acute injury induced by MCAO, animals were euthanized at 24 h after MCAO, and the infarct volume was determined using 2,3,5-triphenyltetrazolium chloride (TTC) staining. (Rajanikant, G. K., et al., Stroke, 38:3023-31 (2007)). In brief, 24 hours after pMCAO, animals were deeply anesthetized with an injection of pentobarbital (70 mg/kg, i.p.) and subjected to intracardiac perfusion with 100 mL of isotonic saline delivered through an electronic pump at 100 mm Hg. The head was then removed with a small animal guillotine and the brain carefully dissected out en bloc. After a brief (<1 minute) period of cooling on a bed of ice, the brain was sliced coronally at 1-mm intervals. […] The infarct area was then quantified from the scanned images using the NIH Image J analysis software (version 1.38). […] Vehicle or various doses (3, 30, 50 or 90 mg/kg) of KB-3 or KB-3a were administered intraperitoneally 2 hr before and 6 hr after pMCAO and the infarct volume was measured at 24 hr post-pMCAO by TTC staining. […]

The subject of assay [2] is pMCAO mice (ipsilateral cortex degenerating neurons). Nature of the assay: Fluoro Jade B staining to determine degenerating neurons after pMCAO. Conditions: 30 mg/kg 2 hr before and 6 hr after pMCAO, 24 h after MCAO. How it is done: We used brain coronal sections […] for Fluoro Jade B staining to determine degenerating neurons, as previously described. (Rajanikant, G. K., et al., Stroke, 38:3023-31 (2007)). In brief, the brain sections on glass slides were dried overnight, immersed for 3 min in 100% ethanol, for 1 min in 70% ethanol, and for 1 min in distilled water, and then incubated in a solution containing 0.01% Fluoro-Jade B (Histo-Chem Inc., Jefferson, Ark.) and 0.1% acetic acid (1:10) for 30 min on a shaker. After three 10-min washes, the slides were coverslipped, and labeled sections were visualized with a confocal laser-scanning microscope.

Assay [3] relates to pMCAO mice. Nature of the assay: Neurological deficit scoring (18-point scale, Garcia) after pMCAO. Conditions: 30 mg/kg, 24 hr post-pMCAO, mean±SEM, vehicle 12.3±0.48, preoperative 17.5±0.29. As to the method:
To determine whether KB-3a-induced reduction in infarct volume and neuronal degeneration could translate into functional recovery, neurological evaluations were performed right before the surgery and 24 hr following pMCAO. The neurobehavioral deficit scoring system consists of six tests as previously described in detail, which include: (1) spontaneous activity, (2) symmetry of four limb movement, (3) forepaw outstretching while held by tail, (4) climbing wall of wire cage, (5) reaction to touch on either side of trunk, and (6) response to vibrissae touch. (See Garcia, J. H., et al., Stroke, 26:627-34 (1995)). The neurological score given to each mouse at the completion of the evaluation is the summation of all six individual test scores. The minimum neurological score is 3 and the maximum is 18. Using the 18 point-based scale, the normal mean preoperative neurological score was 17.5±0.29.

Assay [4] concerns pMCAO mice. Put plainly: Elevated body-swing test (EBST) after pMCAO. Conditions: intraperitoneally 2 hr pre- and 6 hr post-pMCAO, 24 hr after ischemia, vehicle 66.4±4.9, pre-operated 50.55±1.05. How it is done:
In addition, the elevated body-swing test (EBST), described in detail by Borlongan et al, was used by us to assess asymmetric motor behavior. (Borlongan, C. V. and Sanberg, P. R., J. Neurosci., 15:5372-8 (1995)). Mice were held by the base of the tail and elevated about 10 cm from the tabletop. The direction of body swing, defined as an upper body turn of >10° to either side, was recorded for 1 min during each of three trials. The number of left and right turns was counted, and the percentage of turns made to the side contralateral to the ipsilateral hemisphere (% right-biased swing) was determined. (Ishibashi, S., et al., Exp. Neurol., 207:302-13 (2007)). The EBST was used to detect asymmetry in motor behavior at 24 hr post-pMCAO.

With `CC(C)=CCC/C(=C/CC/C(C)=C/CC/C(C)=C/Cc1cc(O)cc(C)c1O)C(=O)O` [KB-3, sargahydroquinoic acid], the “reduction in infarct volume compared with vehicle-treated group” value in assay [1] is “approximately 48%”.

Regarding `CC(=O)Oc1cc(C)c(OC(C)=O)c(CC=C(C)CCC=C(C)CCC=C(CCC=C(C)C)C(=O)O)c1` [KB-3a, 1,4-diacetyl-sargahydroquinoic acid], in assay [1], the “reduction in infarct volume compared with vehicle-treated group” value is “approximately 54%”. The “reduction of Fluoro-Jade B staining within the ipsilateral cortex compared to vehicle control” value in assay [2] is “approximately 50%”. Further, the “neurological score (18 point-based scale)” value in the assay with pMCAO mice [3] turned out to be 17±0.41. In addition, the “percent right-biased swing (EBST)” value with pMCAO mice [4] came to 52.16±1.8%.

Values taken from patent publication US9205119B2, “Neuroprotective compositions and methods” (Rutgers, The State University of New Jersey, priority 2009, dated 2015).
